In BigSolDB 2.1:

CCS(=O)(=O)CCn1c([N+](=O)[O-])cnc1C
solubility (mole fraction)
Details	278.15 K	283.15 K	288.15 K	293.15 K	298.15 K	303.15 K	308.15 K	313.15 K	318.15 K	323.15 K
in 2-butoxyethanol	0.00191	0.00214	0.00276	0.00372	0.00446	0.0054	0.00687	0.00826	0.0106	0.0133
in 2-ethoxyethanol	0.00356	0.00437	0.00526	0.00647	0.00792	0.00957	0.012	0.0147	0.0181	0.0222
in 2-methoxyethanol	0.00839	0.0102	0.0118	0.0145	0.0175	0.0209	0.0257	0.0314	0.0377	0.0462
in 2-propoxyethanol	0.0022	0.00261	0.00329	0.00429	0.00513	0.00622	0.00778	0.00967	0.0123	0.0154
in DMAc	0.0509	0.0571	0.0655	0.0745	0.083	0.0944	0.107	0.121	0.136	0.154
in DMF	0.0454	0.0521	0.06	0.0691	0.0787	0.0905	0.104	0.119	0.134	0.152
in NMP	0.0704	0.0804	0.089	0.0987	0.109	0.122	0.137	0.15	0.167	0.183
in acetone	0.00866	0.011	0.0133	0.0161	0.0195	0.0233	0.028	0.0348	0.0426	0.0517
in ethanol	0.000263	0.000375	0.000479	0.000665	0.000836	0.0012	0.0016	0.00207	0.00277	0.00377
in ethyl acetate	0.00334	0.00412	0.00488	0.0057	0.00689	0.00825	0.0099	0.0118	0.0141	0.0168
in methanol	0.000928	0.00119	0.00157	0.00197	0.00263	0.00345	0.00448	0.00597	0.00785	0.0104
in methyl acetate	0.00557	0.00673	0.00791	0.0095	0.0114	0.0134	0.0159	0.0188	0.0223	0.0257
in n-butyl acetate	0.00199	0.00235	0.0029	0.00358	0.00421	0.00513	0.00617	0.0074	0.00898	0.0107
in n-propyl acetate	0.00255	0.00314	0.00377	0.00456	0.00543	0.00659	0.00783	0.00948	0.0114	0.0135
